Assay: recombinant barcode read abundance after kanamycin selection (control-corrected) (log10(CPM+1)); higher = more efficient recombination; sequences stand for … in AGTGCAGAGAAAATCGGCCAGTTTTCTCTGCCTGCAGTCCGCATGCCGT…AGATTTATGCAGCGGACTGCCTTTCTCCCAAAGTGATAAACCGGACAGTATCATGGACCGGTTTTCCCGGTAATCCGTATTTGCAAGGTTGGTTTCACT; site = the 11-nt target
Summary of the method: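 The screen was pooled in E. coli and paired targets with IS621 bridge RNA target-binding loops. Recombination efficiency is taken from barcode counts per million at recombinant junctions, averaged and adjusted against the control. Values, in the form log10(CPM+1), come from duplicate plating on chloramphenicol/ampicillin LB agar or on chloramphenicol/ampicillin/kanamycin with 0.1 mM IPTG.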
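Also: IS621 recombinase and bridge RNA in Escherichia coli cells.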

Compared with “CGCCTCCCTTGGGTTCTAACCTGTTGCCT (site CGCCTCACTAG)”, “CGCCTCCCTTGGGTTCTAACCTGTTGCCT (site CGCCTCCCTAG)” is higher in “recombinant barcode read abundance (log10)” value: 0.179 for the first, 0.446 for the second.

“CGCCTCCCTTGGGTTCTAACCTGTTGCCT (site CGCCTCGCTAG)” and “CGCCTCCCTTGGGTTCTAACCTGTTGCCT (site CGCCTCTCTAG)” are within 0.2 log units of each other in “recombinant barcode read abundance (log10)” value: 0 for the first, 0.0882 for the second.

“CGCCTCGCTTGGGTTCTAACCTGTTGCCT (site CGCCTCACTAG)” and “CGCCTCGCTTGGGTTCTAACCTGTTGCCT (site CGCCTCCCTAG)” are within 0.2 log units of each other in “recombinant barcode read abundance (log10)” value: 0.07 for the first, 0.16 for the second.

Compared with “CGCCTCGCTTGGGTTCTAACCTGTTGCCT (site CGCCTCGCTAG)”, “CGCCTCGCTTGGGTTCTAACCTGTTGCCT (site CGCCTCTCTAG)” is higher in “recombinant barcode read abundance (log10)” value: 0.0366 for the first, 0.259 for the second.

Compared with “CGCGATCCTTGGGTTCTAACCTGTTGCCT (site CGCGATCCTAG)”, “CGCGATCCTTGGGTTCTAACCTGTTGCCT (site CGCGCTCCTAG)” is lower in “recombinant barcode read abundance (log10)” value: 0.431 for the first, 0.0201 for the second.

First: CGCGATCCTTGGGTTCTAACCTGTTGCCT (site CGCGGTCCTAG)
Second: CGCGATCCTTGGGTTCTAACCTGTTGCCT (site CGCGTTCCTAG)
The “recombinant barcode read abundance (log10)” value of the first is higher: 0.468 for the first, 0.265 for the second.

“CGCGCAACTTGGGTTCTAACCTGTTGCCT (site CGCGCAACTAG)” and “CGCGCAACTTGGGTTCTAACCTGTTGCCT (site CGCGTAACTAG)” are within 0.2 log units of each other in “recombinant barcode read abundance (log10)” value: 0.0454 for the first, 0.185 for the second.

First: CGCGGGTCTTGGGTTCTAACCTGTTGCTT (site CGCGAATCTAA)
Second: CGCGGGTCTTGGGTTCTAACCTGTTGCTT (site CGCGGGTCTAA)
The “recombinant barcode read abundance (log10)” value of the first is lower: 0.236 for the first, 0.88 for the second.

Compared with “CGCGTTCCTTGGGTTCTAACCTGTTGCCT (site CGCGATCCTAG)”, “CGCGTTCCTTGGGTTCTAACCTGTTGCCT (site CGCGCTCCTAG)” is higher in “recombinant barcode read abundance (log10)” value: 0.262 for the first, 0.608 for the second.

Going from “CGCGTTCCTTGGGTTCTAACCTGTTGCCT (site CGCGGTCCTAG)” to “CGCGTTCCTTGGGTTCTAACCTGTTGCCT (site CGCGTTCCTAG)”, the “recombinant barcode read abundance (log10)” value falls from 0.542 to 0.197.

“CGCTGACCTTGGGTTCTAACCTGTTGCTT (site CGCTGACCTAA)” and “CGCTGACCTTGGGTTCTAACCTGTTGCTT (site CGCTGCCCTAA)” are within 0.2 log units of each other in “recombinant barcode read abundance (log10)” value: 0.0663 for the first, 0.208 for the second.

“CGCTGACCTTGGGTTCTAACCTGTTGCTT (site CGCTGGCCTAA)” and “CGCTGACCTTGGGTTCTAACCTGTTGCTT (site CGCTGTCCTAA)” are within 0.2 log units of each other in “recombinant barcode read abundance (log10)” value: 0.116 for the first, 0.231 for the second.

“CGCTGGTCTTGGGTTCTAACCTGTTGCCT (site CGCTAGTCTAG)” and “CGCTGGTCTTGGGTTCTAACCTGTTGCCT (site CGCTCGTCTAG)” are within 0.2 log units of each other in “recombinant barcode read abundance (log10)” value: 0.309 for the first, 0.145 for the second.

“CGCTGGTCTTGGGTTCTAACCTGTTGCCT (site CGCTGGTCTAG)” and “CGCTGGTCTTGGGTTCTAACCTGTTGCCT (site CGCTTGTCTAG)” are within 0.2 log units of each other in “recombinant barcode read abundance (log10)” value: 0.0358 for the first, 0.111 for the second.

“CGCTTGTCTTGGGTTCTAACCTGTTGCTT (site CACTTGACTAA)” and “CGCTTGTCTTGGGTTCTAACCTGTTGCTT (site CGCTTGTCTAA)” are within 0.2 log units of each other in “recombinant barcode read abundance (log10)” value: 0.0517 for the first, 0.0711 for the second.

Compared with “CGGAACTCTTGGGTTCTAACCTGTTGCCT (site AGGAACTCTAG)”, “CGGAACTCTTGGGTTCTAACCTGTTGCCT (site CGGAACTCTAG)” is higher in “recombinant barcode read abundance (log10)” value: 0.274 for the first, 1.85 for the second.

“CGGAATCCTTGGGTTCTAACCTGTTGCCT (site CGGAATCCTAA)” and “CGGAATCCTTGGGTTCTAACCTGTTGCCT (site CGGAATCCTAC)” are within 0.2 log units of each other in “recombinant barcode read abundance (log10)” value: 0.198 for the first, 0.00785 for the second.

Compared with “CGGAATCCTTGGGTTCTAACCTGTTGCCT (site CGGAATCCTAG)”, “CGGAATCCTTGGGTTCTAACCTGTTGCCT (site CGGAATCCTAT)” is lower in “recombinant barcode read abundance (log10)” value: 0.864 for the first, 0.0895 for the second.

First: CGGAATTCTTGGGTTCTAACCTGTTGCCT (site CGGAATTCTAG)
Second: CGGAATTCTTGGGTTCTAACCTGTTGCCT (site CGTTATTCTAG)
The “recombinant barcode read abundance (log10)” value of the first is higher: 1.17 for the first, 0.743 for the second.

“CGGACGGCTTGGGTTCTAACCTGTTGCCT (site CGGACGACTAG)” and “CGGACGGCTTGGGTTCTAACCTGTTGCCT (site CGGACGCCTAG)” are within 0.2 log units of each other in “recombinant barcode read abundance (log10)” value: 0.376 for the first, 0.285 for the second.

“CGGACGGCTTGGGTTCTAACCTGTTGCCT (site CGGACGGCTAG)” and “CGGACGGCTTGGGTTCTAACCTGTTGCCT (site CGGACGTCTAG)” are within 0.2 log units of each other in “recombinant barcode read abundance (log10)” value: 0.215 for the first, 0.271 for the second.

“CGGACGTCTTGGGTTCTAACCTGTTGCCT (site CGGACGACTAG)” and “CGGACGTCTTGGGTTCTAACCTGTTGCCT (site CGGACGCCTAG)” are within 0.2 log units of each other in “recombinant barcode read abundance (log10)” value: 0.12 for the first, 0.0491 for the second.

First: CGGACGTCTTGGGTTCTAACCTGTTGCCT (site CGGACGGCTAG)
Second: CGGACGTCTTGGGTTCTAACCTGTTGCCT (site CGGACGTCTAG)
The “recombinant barcode read abundance (log10)” value of the first is lower: 0.101 for the first, 1.45 for the second.

Compared with “CGGAGCCCTTGGGTTCTAACCTGTTGCAG (site CGGAGCCCTCT)”, “CGGAGCCCTTGGGTTCTAACCTGTTGCAG (site CTGAGCCCTAT)” is lower in “recombinant barcode read abundance (log10)” value: 2.06 for the first, 0.143 for the second.

“CGGCACACTTGGGTTCTAACCTGTTGCCT (site CGACACACTAG)” and “CGGCACACTTGGGTTCTAACCTGTTGCCT (site CGCCACACTAG)” are within 0.2 log units of each other in “recombinant barcode read abundance (log10)” value: 0.239 for the first, 0.0516 for the second.

First: CGGCACACTTGGGTTCTAACCTGTTGCCT (site CGGCACACTAG)
Second: CGGCACACTTGGGTTCTAACCTGTTGCCT (site CGTCACACTAG)
The “recombinant barcode read abundance (log10)” value of the first is higher: 0.761 for the first, 0.00935 for the second.

Going from “CGGCACACTTGGGTTCTAACCTGTTGCTT (site CGGCACACTAA)” to “CGGCACACTTGGGTTCTAACCTGTTGCTT (site CGGCTCACTTA)”, the “recombinant barcode read abundance (log10)” value falls from 0.778 to 0.129.

First: CGGCGTGCTTGGGTTCTAACCTGTTGCCT (site CAGCGTGCTAG)
Second: CGGCGTGCTTGGGTTCTAACCTGTTGCCT (site CCGCGTGCTAG)
The “recombinant barcode read abundance (log10)” value of the first is higher: 0.555 for the first, 0.34 for the second.

Compared with “CGGCGTGCTTGGGTTCTAACCTGTTGCCT (site CGGCGTGCTAG)”, “CGGCGTGCTTGGGTTCTAACCTGTTGCCT (site CTGCGTGCTAG)” is lower in “recombinant barcode read abundance (log10)” value: 1.99 for the first, 0.161 for the second.

Going from “CGGCTACCTTGGGTTCTAACCTGTTGCGG (site CGGCTACCTCC)” to “CGGCTACCTTGGGTTCTAACCTGTTGCGG (site GACGGCACTAG)”, the “recombinant barcode read abundance (log10)” value falls from 1.29 to 0.0111.

Going from “CGGCTGCCTTGGGTTCTAACCTGTTGCGG (site CGGCTGCCTCC)” to “CGGCTGCCTTGGGTTCTAACCTGTTGCGG (site GTATCCGCTTG)”, the “recombinant barcode read abundance (log10)” value falls from 2.57 to 0.446.

Compared with “CGGCTTCCTTGGGTTCTAACCTGTTGCGT (site CAACTTCCTAC)”, “CGGCTTCCTTGGGTTCTAACCTGTTGCGT (site CGGCTTCCTAC)” is higher in “recombinant barcode read abundance (log10)” value: 0.117 for the first, 1.24 for the second.

Compared with “CGGGACACTTGGGTTCTAACCTGTTGCGG (site CGGAACACTCC)”, “CGGGACACTTGGGTTCTAACCTGTTGCGG (site CGGCACACTCC)” is lower in “recombinant barcode read abundance (log10)” value: 2.07 for the first, 0.143 for the second.

First: CGGGACACTTGGGTTCTAACCTGTTGCGG (site CGGGACACTCC)
Second: CGGGACACTTGGGTTCTAACCTGTTGCGG (site CGGTACACTCC)
The “recombinant barcode read abundance (log10)” value of the first is higher: 2.82 for the first, 0.867 for the second.

Going from “CGGGCTACTTGGGTTCTAACCTGTTGCCA (site CGGGCTACTTG)” to “CGGGCTACTTGGGTTCTAACCTGTTGCCA (site TCCTAATCTAA)”, the “recombinant barcode read abundance (log10)” value falls from 0.334 to 0.00664.

Compared with “CGGGGAGCTTGGGTTCTAACCTGTTGCCG (site CGGGAAGCTAG)”, “CGGGGAGCTTGGGTTCTAACCTGTTGCCG (site CGGGGAGCTCG)” is higher in “recombinant barcode read abundance (log10)” value: 0.427 for the first, 0.761 for the second.

First: CGGGGCACTTGGGTTCTAACCTGTTGCCT (site CGGGGCACTAG)
Second: CGGGGCACTTGGGTTCTAACCTGTTGCCT (site CTGGGCACTAG)
The “recombinant barcode read abundance (log10)” value of the first is higher: 0.606 for the first, 0.18 for the second.

“CGGGGTTCTTGGGTTCTAACCTGTTGCCT (site CAGGGTTCTAG)” and “CGGGGTTCTTGGGTTCTAACCTGTTGCCT (site CCGGGTTCTAG)” are within 0.2 log units of each other in “recombinant barcode read abundance (log10)” value: 0.321 for the first, 0.167 for the second.

For “CGGGGTTCTTGGGTTCTAACCTGTTGCCT (site CGGGGTTCTAG)”, the “recombinant barcode read abundance (log10)” value was 2.43.
